Measurements published in patent US20250228880A1, “REDOX-ACTIVE COMPOUNDS AND RELATED COMPOUNDS, COMPOSITIONS, METHODS AND SYSTEMS” (CALIFORNIA INSTITUTE OF TECHNOLOGY, priority 2008, published 2025).
Several values for one entry are separate records, joined by “and”; a condition that tells them apart may be missing. Equal entries are not always repeated. Entries after “also recorded” stand apart in the source; their conditions may differ. Where two headings read alike, the source gives them in different places.

Legend:
[1] = tested on: P. aeruginosa PA14 Δphz mutant; experiment: Anaerobic survival in bulk electrolysis bioreactor (viable cell counts, CFU); assay type: cell-based, Pseudomonas aeruginosa; settings: for Support survival?: anaerobic survival of Δphz over 7 days, 10^9 cells/mL, 20 mM D-glucose, about 90 µM compound, electrode at +0.2 V vs. NHE, CFU on LB agar
Experimental: Microbiological methods. P. aeruginosa strain UCBPP-PA14 with deletions of two redundant phenazine biosynthetic operons phzA1-G1 and phzA2-G2, hereafter referred to as the Δphz mutant, was cultivated aerobically at 37° C. in Luria-Bertani (LB) broth (Fisher Scientific) to stationary phase. A washing procedure using centrifugation to collect cell pellets and vortexing to resuspend cell pellets in sterile PBS buffer (recipe) was repeated twice. For centrifugation, the cultures were split into 50 mL sterile centrifuge tubes and centrifuged for 8 minutes at 6000 g, at 4° C. After washing, cell culture was concentrated by resuspending pellets in PBS buffer with one-tenth of original cultural volume. Optical density of this culture was measured at 500 nm using Beckman Coulter D U 800 spectrophotometer. Dilution was performed to yield the OD reading below 0.8. The culture aliquots were then transferred into electrochemical cells with oxygen-free minimal salt medium (20 mM glucose as the carbon source) to serve as the cultures electrochemical studies (see next section for details).
Survival experiments in electrochemical setup. Electrochemical measurements were performed with a Gamry G- potentiostat. All experiments were conducted in an O2— and H2— free glovebox (MBraun) at 30° C. and in the dark. All measured potentials were referenced to a Ag/AgCl electrode (RE-5B, BASi). Reported potentials were referenced to the Normal Hydrogen Electrode NHE (V vs. NHE=V vs. Ag/AgCl+207 mV) to permit comparisons with other studies. A graphite rod (6.15 mm dia ×152 mm long, Alfa Aesar) was used as the working electrode, and the operating surface area was 6 cm^2. The counter electrode was made from a platinum mesh (Alfa Aesar) soldered to a copper wire. The working electrode was in a sample compartment together with the reference electrode. The counter electrode was in another compartment isolated from the working electrode. The two compartments were joined by a fritted glass junction. The controlled potential bulk electrolysis was set at 0 V vs. Ag/AgCl. This potential is mild enough to only oxidize reduced phenazines, but not other components in the cultural medium.
To test whether phenazine electron shuttling can help P. aeruginosa survive, 100 µM phenazine, 20 mM glucose, high or low initial cell densities in the range of 10^9 cells/mL or 10^7 cells/mL were added to the medium to give total 100 mL suspension in the compartment along with the working and reference electrodes, and the potential was applied at 0 V (vs. Ag/AgCl) for 7 days. Cell suspension aliquots were taken as a function of time for viable colony counts. Current and charge transferred were recorded continuously. Cultures without phenazine, or without the potential applied, or without both were served as the controls. To confirm that glucose is used as the carbon source in the case of survival, experiments with or without glucose addition were compared.
To investigate the effect of redox-active small molecules on anaerobic survival of redox active organisms, Applicants tested the effect of redox-active molecule in P. aeruginosa PA14. In particular, Applicants assembled bulk electrolysis-based glass bioreactors housed within an O2— and H2— free glovebox (MBraun) and controlled by a multichannel potentiostat (Gamry, Series G 300) outside the glovebox. Each bioreactor held a graphite rod working electrode (Alfa Aesar) with an operating surface area of 6 cm^2, a Ag/AgCl reference electrode (BASi, RE-5B) with a constant potential of +0.207 V vs. the normal hydrogen electrode (NHE), and about 100 mL MOPS culture medium [100 mM MOPS at pH 7.2, 93 mM NH4Cl, 43 mM NaCl, 2.2 mM KH2PO4, 1 mM MgSO4, […]](modified from ref. (Palmer, K. L., L. M. Mashburn, P. K. Singh, and M. Whiteley. 2005. Cystic fibrosis sputum supports growth and cues key aspects of Pseudomonas aeruginosa physiology. Journal of Bacteriology 187:5267-5277)). […]

[2] = tested on: P. aeruginosa PA14 Δphz mutant; experiment: Reduction by PA14 (colour change in survival control experiments without poised potential); assay type: cell-based, Pseudomonas aeruginosa; settings: intracellular reduction by Δphz cells
[3] = literature values (footnotes a, c, d, e); oxidized form; cited from earlier work
[4] = Reduction potential E0' (cyclic voltammetry); assay type: physicochemical; settings: measured in aqueous solution at pH 7 in this study (footnote b)
[5] = tested on: Pseudomonas aeruginosa PA14 phenazine null mutant; experiment: Colony morphology assay; assay type: cell-based; settings: pyocyanin added to the growth medium (50 μM HPLC-purified, 1% tryptone, 1% agar plates)
Experimental: In particular, in FIG. 8 is shown how the phenazine null mutant forms smooth colonies in the presence of exogenous phenazines. […] Image was taken after 5 days.
Colony morphology assay: colony morphology assay was performed with Pseudomonas aeruginosa and Streptomyces coelicolor as described herein below: a) Pseudomonas aeruginosa PA 14: Strains were grown in LB medium to late exponential phase, then 10 μl were spotted onto 1% agar plates containing 10 g/L Tryptone Broth, supplemented with […] Congo Red and […] Coomassie Blue as described previously (L. Friedman, R. Kolter, Mot Microbial 51, 675 (2004)). Plates were incubated at room temperature. Colonies were imaged using an Epson Perfection 2400 Photo Scanner at 600 dpi resolution, Nikon stereomicroscope or a digital microscope (Proscope). b) Streptomyces coelicolor A3(2): 10 µl of a spore suspension in water was spotted onto plates with R5-medium. Plates were incubated at room temperature for six days. Colonies were imaged using a Nikon stereomicroscope.

Row | Compound | Support survival? [1] | Reduction by PA14? [2] | E^0′ (vs. NHE) [3] | drop of viable cells ([1]; regardless of bioreactor experimental conditions, 7 days) | E^0′ (vs. NHE) [4] [mV] | survival vs. growth at low cell density ([1]; viable cells at 10^7 CFU/mL, data not shown) | drop of viable cells from the original CFU ([1]; without D-glucose, with PYO and the poised potential, by day 6) | colony morphology of the phenazine null mutant [5] | Support survival? ([1]; listed as paraquat) | Reduction by PA14? ([2]; listed as paraquat)
1 | Oc1cccc2nc3ccccc3nc12 [1-OHPHZ, 1-hydroxyphenazine] | promote anaerobic survival and Yes | Yes | −174^a mV | – | – | – | – | – | – | –
2 | O=C1c2ccc(S(=O)(=O)O)cc2C(=O)c2ccc(S(=O)(=O)O)cc21 [2,6-AQDS] | No | only a small portion of 2,6-AQDS was reduced; also recorded: Yes (very slowly) | −184^d mV | – | – | – | – | – | – | –
3 | O=C(O)Cc1cc(O)ccc1O [HMA, Homogentisic acid] | cannot support Δphz survival and No | – | – | – | – | – | – | – | – | –
4 | CN(C)c1ccc2nc3ccc(=[N+](C)C)cc-3sc2c1 [MB, Methylene blue] | cannot support Δphz survival and No | reduced intracellularly and Yes | +11 mV | 3 orders of magnitude | 0 | – | – | – | – | –
5 | O=C(O)c1cccc2nc3ccccc3nc12 [PCA, phenazine-1-carboxylic acid] | promote anaerobic survival and Yes | Yes | −114^a mV | – | – | – | – | – | – | –
6 | C[n+]1c2ccccc2nc2c([O-])cccc21 [PYO, Pyocyanin] | promote anaerobic survival and Yes | Yes | −40^a mV | – | – | supported only survival but not growth | 4 orders of magnitude | smooth compact colonies | – | –
7 | C[n+]1ccc(-c2cc[n+](C)cc2)cc1 [Paraquat] | No | No | −446 mV and −446^e mV | – | – | – | – | – | cannot support anaerobic survival of Δphz | cannot be reduced by Δphz
